In US8710017B2, “Human and mouse targeting peptides identified by phage display” (priority 2000, dated 2014):
Peptide text beside a SMILES is read from it.

Assays:
[1] = biological target: T1, β3 integrin cytoplasmic domain (Homo sapiens, UniProt P05106); experiment: Binding of Fyn-phosphorylated phage to β3 cytoplasmic domain; settings: phage phosphorylated by Fyn versus unphosphorylated phage
T1 construct: recombinant fusion proteins containing β3 or β5 cytoplasmic domains
T1 sequence (P05106 742-788 limits assumed): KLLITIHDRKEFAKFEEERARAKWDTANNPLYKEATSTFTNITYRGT
Protocol: Phosphorylation of peptide libraries with src family protein kinases (Fyn, c-Src, Lyn, and Syc) and serine/threonine kinases such as a MAP kinase were performed as described previously (Schmitz et al., 1996; Dente et al., 1997; Gram et al., 1997). Briefly, phage particles were collected from culture supernatants by double precipitation with 20% polyethylene glycol 8000 in 2.5 M NaCl. Particles were dissolved at 10^12 particles/ml. Purified phage (10 μl) were incubated for 3 hours at room temperature with different concentrations (35 to 3,500 units) of protein kinases in a reaction buffer volume of 50 μl. The reaction mixtures were transferred to tubes containing 10 μg of agarose-conjugated anti-P-Tyr, anti-P-Ser, or anti-P-Thr monoclonal antibodies to select phage displaying phosphorylated peptides. […] Phosphorylated peptides binding to β3 and β5 cytoplasmic domains were analyzed as described in the previous section.
Randomly selected clones from rounds III and IV were sequenced from a X4YX4 phosphorylated library with Fyn. […] The ratio of binding to β3 or β5 was calculated by dividing the number of β3 or β5 colonies by GST or BSA colonies found after panning. The ratio of binding to β3 or β5 with phosphorylated phage by Fyn versus unphosphorylated phage was calculated by dividing the number of colonies found after the panning. […]

[2] = biological target: T2, APA (SK-RC-49/APA cells) (Homo sapiens, UniProt Q07075); experiment: Phage binding specificity assay on SK-RC-49/APA cells; assay type: cell-based; settings: soluble peptide in binding medium, not shown
T2 construct: The renal carcinoma cell line SK-RC-49 was transfected with an expression vector encoding full-length APA cDNA; expressed in transfected cells; host or cells: SK-RC-49 renal carcinoma cells, stably transfected (G418)
Protocol: The cell binding assay was performed with an input of 10^9 TU as described for the cell panning. The specificity was confirmed by adding […] (SEQ ID NO:123) peptide to the binding medium in increasing concentrations. For phage binding on immunocaptured APA, wells were blocked for 1 h at room temperature with PBS/3% BSA and incubated with 10^9 TU for 1 h at room temperature in 50 μl PBS/3% BSA. After eight washes in PBS/1% BSA/0.01% Tween-20 and two washes in PBS, phage were rescued by adding 200 μl of exponentially growing K91Kan E. coli. Each experiment was repeated at least three times.

[3] = biological target: T3, Aminopeptidase A (APA, EC 3.4.11.7) (Homo sapiens, UniProt Q07075); experiment: APA enzyme assay (α-glutamyl-p-nitroanilide, SK-RC-49/APA cells); assay type: biochemical; settings: highest concentration tested
T3 construct: The renal carcinoma cell line SK-RC-49 was transfected with an expression vector encoding full-length APA cDNA; expressed in transfected cells; host or cells: SK-RC-49 renal carcinoma cells, stably transfected (G418)

[4] = system: HUVECs; experiment: HUVEC chemotaxis assay (Boyden chamber, VEGF-A); assay type: cell-based, human
Protocol: FIG. 24. […] (SEQ ID NO:123) inhibits HUVEC migration. HUVECs were stimulated with VEGF-A (10 ng/ml). The assay was performed in a Boyden microchemotaxis chamber, and cells were allowed to migrate through an 8-μm pore filter for 5 h at 37° C. […] (SEQ ID NO:124) (control) and […] (SEQ ID NO:123) peptides were tested at 1 mM concentration. Migrated cells were stained and five high-power fields (magnitude 100×) for each microwell were counted. Error bars are the standard error of the means of triplicate microwells.
A cell migration assay was performed in a 48-well microchemotaxis chamber (NeuroProbe, Gaithersburg, Md.) according to Bussolini et al. (1995). Polyvinylpyrrolidone-free polycarbonate filters (Nucleopore, Cambridge, Mass.) with 8-μm pores were coated with 1% gelatin for 10 min at room temperature and equilibrated in M199 medium supplemented with 2% FCS. […] (SEQ ID NO:123) or control […] (SEQ ID NO:124) peptide (1 mM) was placed in the lower compartment of a Boyden chamber in M199 medium supplemented with 2% FCS and 10 ng/ml VEGF-A (R&D System). Subconfluent cultures that had been starved overnight were harvested in PBS containing 2.5 mM EDTA, washed once in PBS, and resuspended in M199 medium containing 2% FCS at a final concentration of 2×10^6 cells/ml. After the filter was placed between the lower and upper chambers, 50 μl of the cell suspension was seeded in the upper compartment, and cells were allowed to migrate for 5 h at 37° C. in a humidified atmosphere with 5% CO2. The filter was then removed, and cells on the upper side were scraped with a rubber policeman. Migrated cells were fixed in methanol and stained with Giemsa solution (Diff-Quick, Baxter Diagnostics, Rome, Italy). Five random high-power fields (magnitude 100×) were counted in each well. Each assay was run in triplicate.

[5] = system: HUVECs; experiment: HUVEC cell growth assay (crystal violet, VEGF-A); assay type: cell-based, human
Protocol: FIG. 25. […] (SEQ ID NO:123) inhibits HUVEC proliferation. Cells were stimulated with VEGF-A (10 ng/ml), and growth was evaluated at the indicated times by a colorimetric assay based on crystal violet staining. Error bars are the standard error of the means of triplicate wells. Each experiment was repeated at least twice with similar results.
HUVECs were seeded in 48-well plates (10^4 cells/well) and allowed to attach for 24 h in complete M199 medium. The cells were then starved in M199 medium containing 2% FCS for 24 h. […] (SEQ ID NO:123) or control […] (SEQ ID NO:124) peptide (1 mM) was added to the wells in medium containing 2% FCS and 10 ng/ml VEGF-A (R&D System, Abingdom, UK). After incubation for the indicated times, cells were fixed in 2.5% glutaraldehyde, stained with 0.1% crystal violet in 20% methanol, and solubilized in 10% acetic acid. All treatments were done in triplicate. Cell growth was evaluated by measuring the O.D. at 590 nm in a microplate reader (Biorad, Hercules, Calif.). A calibration curve was established and a linear correlation between O.D. and cell counts was observed between 10^3 and 10^5 cells.

[6] = system: HUVECs; experiment: Three-dimensional Matrigel culture of HUVECs (capillary-like network); assay type: cell-based, human; settings: not shown
Protocol: Matrigel (Collaborative Research, Bedford, Mass.) was added at 100 μl per well to 48-well tissue culture plates and allowed to solidify for 10 min at 37° C. HUVECs were starved for 24 h in M199 medium supplemented with 2% FCS before being harvested in PBS containing 2.5 mM EDTA. 10^4 cells were gently added to each of the triplicate wells and allowed to adhere to the gel coating for 30 min at 37° C. Then, medium was replaced with indicated concentrations of […] (SEQ ID NO:123) or […] (SEQ ID NO:124) peptides in complete medium. The plates were photographed after 24 h with an inverted microscope (Canon). The assay was repeated three times.

[7] = system: chicken chorioallantoic membrane (CAM); experiment: CAM assay for angiogenesis; assay type: in vivo
Protocol: In vivo angiogenesis was evaluated by a CAM assay (Ribatti et al., 1994). Fertilized eggs from White Leghorn chickens were maintained in constant humidity at 37° C. On the third day of incubation, a square window was opened in the eggshell and 2-3 ml of albumen was removed to detach the developing CAM from the shell. The window was sealed with a glass plate of the same size and the eggs were returned to the incubator. At day 8, 1 mm^3 sterilized gelatin sponges (Gelfoam, Upjohn Co, Kalamazoo, Milan) were adsorbed with VEGF-A (20 ng, R&D System) and either […] (SEQ ID NO:123) or control […] (SEQ ID NO:124) peptide (1 mM) in 3 μl PBS and implanted on the top of the growing CAMs under sterile conditions. CAMs were examined daily until day 12 and photographed in ovo with a Leica stereomicroscope. Capillaries emerging from the sponge were counted. The assay was repeated twice.

[8] = lower concentrations, not shown

T2 sequence (Q07075 whole entry): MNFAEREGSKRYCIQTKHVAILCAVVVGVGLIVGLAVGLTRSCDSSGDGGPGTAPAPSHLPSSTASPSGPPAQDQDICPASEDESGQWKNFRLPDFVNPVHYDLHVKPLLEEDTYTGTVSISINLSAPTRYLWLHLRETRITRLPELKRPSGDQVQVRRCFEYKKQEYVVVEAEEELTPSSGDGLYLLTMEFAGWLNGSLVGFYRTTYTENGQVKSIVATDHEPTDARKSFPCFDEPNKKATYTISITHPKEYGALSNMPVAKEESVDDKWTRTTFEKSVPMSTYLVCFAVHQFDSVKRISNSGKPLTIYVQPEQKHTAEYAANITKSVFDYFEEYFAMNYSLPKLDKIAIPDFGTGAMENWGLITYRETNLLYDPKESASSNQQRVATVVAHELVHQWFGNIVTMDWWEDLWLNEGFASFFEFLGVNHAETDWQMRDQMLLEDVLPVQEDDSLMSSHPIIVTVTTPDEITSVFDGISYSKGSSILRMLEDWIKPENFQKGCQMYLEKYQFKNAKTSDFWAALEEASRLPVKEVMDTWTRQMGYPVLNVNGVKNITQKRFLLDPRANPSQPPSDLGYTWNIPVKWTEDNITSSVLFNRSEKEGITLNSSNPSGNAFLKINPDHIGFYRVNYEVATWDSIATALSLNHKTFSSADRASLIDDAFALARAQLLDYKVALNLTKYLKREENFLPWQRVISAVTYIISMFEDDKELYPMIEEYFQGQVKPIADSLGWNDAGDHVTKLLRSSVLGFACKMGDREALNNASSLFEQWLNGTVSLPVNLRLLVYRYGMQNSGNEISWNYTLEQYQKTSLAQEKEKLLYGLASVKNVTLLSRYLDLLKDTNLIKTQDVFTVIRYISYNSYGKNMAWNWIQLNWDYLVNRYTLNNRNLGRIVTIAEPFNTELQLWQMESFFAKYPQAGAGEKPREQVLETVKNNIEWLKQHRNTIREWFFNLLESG
T3 sequence (Q07075 whole entry): as above

Row | Phos/Unphos [1] | Molecule | competition with CPKVCPRECESNC phage for binding to SK-RC-49/APA cells [2] | reduction of APA enzyme activity [3] | inhibition of chemotaxis of HUVECs ([4]; 1 mM, VEGF-A 10 ng/ml, 5 h, FIG. 24) | effect on cell migration [4, 8] | inhibition of HUVEC proliferation ([5]; 1 mM, VEGF-A 10 ng/ml, FIG. 25) | effect on cell proliferation [5, 8] | HUVEC morphogenesis / capillary-like network ([6]; 1 mM, 24 h) | formation of capillary-like network ([6]; increasing concentrations) | inhibition of VEGF-A-induced neovascularization (number of capillaries emerging from the sponge) ([7]; 1 mM, VEGF-A 20 ng, day 12) | effect on the number of growing vessels ([7]; lower peptide concentrations, not shown)
1 | 2.5 | MLLGYRFEK |  |  |  |  |  |  |  |  |  | 
2 |  | CC[C@H](C)[C@H](NC(=O)[C@H](CO)NC(=O)[C@H](CCC(=O)O)NC(=O)[C@H](CS)NC(=O)[C@H](CCC(=O)O)NC(=O)[C@H](CCCNC(=N)N)NC(=O)[C@@H]1CCCN1C(=O)[C@@H](N)CS)C(=O)N[C@@H](CS)C(=O)O (H-CPRECESIC-OH) | competed | 60% | 70% | no significant effect | 50% | no significant effect | vessel-like branching structures were significantly fewer and shorter | progressive impairment of the formation of this network | 40% | no effect
